Source: patent US12492181B2, “Gem-disubstituted piperidine melanocortin subtype-2 receptor (MC2R) antagonists and uses thereof” (Crinetics Pharmaceuticals, Inc., priority 2019, dated 2025)

Molecular target: T1, hMC2 receptor (crude hMC2R membranes from CRE-bla-CHO-K1 cells stably expressing hMC2 receptor and hMRAP accessory protein) (Homo sapiens, UniProt Q01718)
T1 construct: crude membrane fractions
Experiment: hMC2 membrane binding assay ([125I]ACTH (1-39) Tyr23, SPA)
Settings: displacement of 0.2 nM [125I]ACTH (1-39) Tyr23 from hMC2R membranes, 1.5 hours at room temperature; read-out: MC2R binding potency
Procedure: Crude membrane fractions are prepared from CRE-bla-CHO-K1 cells stably expressing hMC2 receptor and hMRAP accessory protein (Thermo Fisher). The cells are grown to 85-100% confluence on standard tissue culture dishes in GlutaMax DMEM growth media (Gibco) with following additives: 10% dialyzed FBS (Gemini), 0.1 mM NEAA (Gibco), 25 mM HEPES (Gibco), 5 μg/mL blasticidin (Goldbio), 100 μg/mL zeocin (Invitrogen), 600 μg/mL hygromycin (Goldbio). To prepare membranes, cells are scraped and collected in 1× Dulbecco's phosphate buffered saline (Corning) and then pelleted at 1000 RPM's. The cell pellet is reconstituted in membrane preparation buffer (20 mM HEPES, 6 mM MgCl2 and 1 mM EGTA, protease inhibitor tablets (Pierce) adjusted to pH 7.4), homogenized using a dounce homogenizer, and the resulting membrane fraction is pelleted by centrifugation at 12,000 RPM's. The membrane pellet is resuspended in membrane preparation buffer, snap freezed and stored at −80° C. for later use.
Binding Assay for hMC2 Antagonists Protocol:
The hMC2 membrane binding assay utilizes the following components: radiolabel [^125I]ACTH (1-39) Tyr23 (PerkinElmer), wheatgerm agglutinin coated PVT SPA beads (PerkinElmer), crude hMC2R membranes, and compounds. Briefly hMC2R membranes are incubated with SPA beads in binding assay buffer (50 mM HEPES, 5 mM MgCl2, 1 mM CaCl2), 0.20% BSA, protease inhibitor tablets (Pierce) adjusted to pH7.4) prior to assay initiation. […] Assay plates are read using a Top Count NXT and Ki values for compounds are determined using a GraphPad Prism 6 non-linear regression analysis.

T1 sequence (Q01718 whole entry): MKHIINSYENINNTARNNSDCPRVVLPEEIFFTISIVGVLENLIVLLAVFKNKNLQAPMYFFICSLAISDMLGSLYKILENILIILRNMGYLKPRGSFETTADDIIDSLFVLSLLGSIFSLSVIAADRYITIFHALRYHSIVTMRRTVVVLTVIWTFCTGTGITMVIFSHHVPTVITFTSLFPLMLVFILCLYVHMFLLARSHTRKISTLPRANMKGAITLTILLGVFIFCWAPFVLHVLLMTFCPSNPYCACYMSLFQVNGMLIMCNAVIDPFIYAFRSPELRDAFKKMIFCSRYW
T1 sequence (Q8TCY5 whole entry partner): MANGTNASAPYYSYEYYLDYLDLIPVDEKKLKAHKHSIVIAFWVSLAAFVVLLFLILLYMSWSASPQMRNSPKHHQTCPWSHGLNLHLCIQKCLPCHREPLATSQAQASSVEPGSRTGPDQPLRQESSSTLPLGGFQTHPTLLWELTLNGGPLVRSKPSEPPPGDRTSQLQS

Row | SMILES | Ki
1 | CCOc1ncccc1-c1ncc(C2(C(=O)N[C@H]3CCN(C)C3)CCN(c3ccc(C(F)(F)F)cc3Cl)CC2)cc1F [Compound 1-203, 1-[2-chloro-4-(trifluoromethyl)phenyl]-4-{2′-ethoxy-3-fluoro-[2,3′-bipyridin]-5-yl}-N-[(3S)-1-methylpyrrolidin-3-yl]piperidine-4-carboxamide] | < 0.01 µM
2 | COc1ccccc1-c1ccc(C2(C(=O)NC[C@H]3CCN3C)CCN(c3ccc(C(F)(F)F)cc3C#N)CC2)cn1 [Compound 1-244, 1-[2-cyano-4-(trifluoromethyl)phenyl]-4-[6-(2-methoxyphenyl)pyridin-3-yl]-N-{[(2R)-1-methylazetidin-2-yl]methyl}piperidine-4-carboxamide] | < 0.01 µM
3 | CN1CC[C@@H](NC(=O)C2(c3ccc(-c4ccccc4C(C)(F)F)nc3)CCN(c3ccc(C(F)(F)F)cc3C#N)CC2)C1 [Compound 1-84, 1-[2-cyano-4-(trifluoromethyl)phenyl]-4-{6-[2-(1,1-difluoroethyl)phenyl]pyridin-3-yl}-N-[(3R)-1-methylpyrrolidin-3-yl]piperidine-4-carboxamide] | 0.01 to 0.1 µM
4 | COc1ncccc1-c1ccc(C2(C(=O)N[C@@H](C)CN(C)C)CCN(c3ccc(C(F)(F)F)cc3Cl)CC2)cn1 [Compound 1-296, 1-[2-chloro-4-(trifluoromethyl)phenyl]-N-[(2S)-1-(dimethylamino)propan-2-yl]-4-{2′-methoxy-[2,3′-bipyridin]-5-yl}piperidine-4-carboxamide] | < 0.01 µM
5 | COc1sccc1-c1ccc(C2(C(=O)N[C@@H]3CCN(C)C3)CCN(c3ccc(C(F)(F)F)cc3C#N)CC2)cn1 [Compound 1-83, 1-[2-cyano-4-(trifluoromethyl)phenyl]-4-[6-(2-methoxythiophen-3-yl)pyridin-3-yl]-N-[(3R)-1-methylpyrrolidin-3-yl]piperidine-4-carboxamide] | < 0.01 µM
6 | COc1ccccc1-c1ccc(C2(C(=O)N[C@@H]3CN(C)C[C@H]3F)CCN(c3ccc(C(F)(F)F)cc3C#N)CC2)cn1 [Compound 1-243, 1-[2-cyano-4-(trifluoromethyl)phenyl]-N-[(3R,4R)-4-fluoro-1-methylpyrrolidin-3-yl]-4-[6-(2-methoxyphenyl)pyridin-3-yl]piperidine-4-carboxamide] | < 0.01 µM
7 | COc1ccccc1-c1ncc(C2(C(=O)NCCN(C)C)CCN(c3ccc(C(F)(F)F)cc3C#N)CC2)cc1F [Compound 1-198, 1-[2-cyano-4-(trifluoromethyl)phenyl]-N-[2-(dimethylamino)ethyl]-4-[5-fluoro-6-(2-methoxyphenyl)pyridin-3-yl]piperidine-4-carboxamide] | < 0.01 µM
8 | COc1ccccc1-c1ccc(C2(C(=O)N[C@@H]3CCN(C)C3)CCN(c3ccc(C(F)(F)F)cc3C#N)CC2)cn1 [Compound 1-52, 1-[2-cyano-4-(trifluoromethyl)phenyl]-4-[6-(2-methoxyphenyl)pyridin-3-yl]-N-[(3R)-1-methylpyrrolidin-3-yl]piperidine-4-carboxamide] | < 0.01 µM
9 | COc1ccccc1-c1ncc(C2(C(=O)N[C@H]3CCN(C)C3)CCN(c3ccc(C(F)(F)F)cc3C#N)CC2)cc1F [Compound 1-127, 1-[2-cyano-4-(trifluoromethyl)phenyl]-4-[5-fluoro-6-(2-methoxyphenyl)pyridin-3-yl]-N-[(3S)-1-methylpyrrolidin-3-yl]piperidine-4-carboxamide] | < 0.01 µM
10 | CCOc1ncccc1-c1ccc(C2(C(=O)NCCN)CCN(c3ccc(C(F)(F)F)cc3C#N)CC2)cc1 [Compound 1-3, N-(2-aminoethyl)-1-[2-cyano-4-(trifluoromethyl)phenyl]-4-[4-(2-ethoxypyridin-3-yl)phenyl]piperidine-4-carboxamide] | 0.01 to 0.1 µM
11 | CCOc1ccccc1-c1ncc(C2(C(=O)N[C@@H]3CCN(C)C3)CCN(c3ccc(C(F)(F)F)cc3C#N)CC2)cc1F [Compound 1-123, 1-[2-cyano-4-(trifluoromethyl)phenyl]-4-[6-(2-ethoxyphenyl)-5-fluoropyridin-3-yl]-N-[(3R)-1-methylpyrrolidin-3-yl]piperidine-4-carboxamide] | < 0.01 µM
12 | COc1ccccc1-c1ccc(C2(C(=O)NC[C@@H]3COCCN3C)CCN(c3ccc(C(F)(F)F)cc3C#N)CC2)cn1 [Compound 1-329, 1-[2-cyano-4-(trifluoromethyl)phenyl]-4-[6-(2-methoxyphenyl)pyridin-3-yl]-N-{[(3R)-4-methylmorpholin-3-yl]methyl}piperidine-4-carboxamide] | < 0.01 µM
13 | COc1ccccc1-c1ccc(C2(C(=O)N[C@@H]3CNC[C@H]3F)CCN(c3ccc(C(F)(F)F)cc3C#N)CC2)cn1 [Compound 1-238, 1-[2-cyano-4-(trifluoromethyl)phenyl]-N-[(3R,4R)-4-fluoropyrrolidin-3-yl]-4-[6-(2-methoxyphenyl)pyridin-3-yl]piperidine-4-carboxamide] | < 0.01 µM
14 | CN1CC[C@@H](NC(=O)C2(c3ccc(-c4cccc(F)c4O)nc3)CCN(c3ccc(C(F)(F)F)cc3C#N)CC2)C1 [Compound 1-129, 1-[2-cyano-4-(trifluoromethyl)phenyl]-4-[6-(3-fluoro-2-hydroxyphenyl)pyridin-3-yl]-N-[(3R)-1-methylpyrrolidin-3-yl]piperidine-4-carboxamide] | 0.01 to 0.1 µM
15 | CCOc1ncccc1-c1ccc(C2(C(=O)N[C@@H](C)CN(C)C)CCN(c3ccc(C(F)(F)F)cc3F)CC2)cn1 [Compound 1-317, N-[(2S)-1-(dimethylamino)propan-2-yl]-4-{2′-ethoxy-[2,3′-bipyridin]-5-yl}-1-[2-fluoro-4-(trifluoromethyl)phenyl]piperidine-4-carboxamide] | < 0.01 µM
16 | CNC[C@H](C)NC(=O)C1(c2ccc(-c3cccnc3OC)nc2)CCN(c2ccc(C(F)(F)F)cc2F)CC1 [Compound 1-306, 1-[2-fluoro-4-(trifluoromethyl)phenyl]-4-{2′-methoxy-[2,3′-bipyridin]-5-yl}-N-[(2S)-1-(methylamino)propan-2-yl]piperidine-4-carboxamide] | < 0.01 µM
17 | CN(C)CCNC(=O)C1(c2cnc(-c3cccn3C)c(F)c2)CCN(c2ccc(C(F)(F)F)cc2F)CC1 [Compound 1-304, N-[2-(dimethylamino)ethyl]-1-[2-fluoro-4-(trifluoromethyl)phenyl]-4-[5-fluoro-6-(1-methyl-1H-pyrrol-2-yl)pyridin-3-yl]piperidine-4-carboxamide] | < 0.01 µM
18 | CN1CC[C@@H](NC(=O)C2(c3ccc(-c4cc(F)ccc4F)nc3)CCN(c3ccc(C(F)(F)F)cc3C#N)CC2)C1 [Compound 1-68, 1-[2-cyano-4-(trifluoromethyl)phenyl]-4-[6-(2,5-difluorophenyl)pyridin-3-yl]-N-[(3R)-1-methylpyrrolidin-3-yl]piperidine-4-carboxamide] | < 0.01 µM
19 | CNCCNC(=O)C1(c2ccc(-c3ccccc3OC)nc2)CCN(c2ccc(C(F)(F)F)cc2C#N)CC1 [Compound 1-214, 1-[2-cyano-4-(trifluoromethyl)phenyl]-4-[6-(2-methoxyphenyl)pyridin-3-yl]-N-[2-(methylamino)ethyl]piperidine-4-carboxamide] | < 0.01 µM
20 | COc1ccccc1-c1ccc(C2(C(=O)NCCN(C)C)CCN(c3ccc(C(F)(F)F)cc3Cl)CC2)cn1 [Compound 1-255, 1-[2-chloro-4-(trifluoromethyl)phenyl]-N-[2-(dimethylamino)ethyl]-4-[6-(2-methoxyphenyl)pyridin-3-yl]piperidine-4-carboxamide] | < 0.01 µM
21 | COCc1ccccc1-c1ccc(C2(C(=O)N[C@@H]3CCN(C)C3)CCN(c3ccc(C(F)(F)F)cc3C#N)CC2)cn1 [Compound 1-79, 1-[2-cyano-4-(trifluoromethyl)phenyl]-4-{6-[2-(methoxymethyl)phenyl]pyridin-3-yl}-N-[(3R)-1-methylpyrrolidin-3-yl]piperidine-4-carboxamide] | < 0.01 µM
22 | COc1ncc(F)cc1-c1ccc(C2(C(=O)N[C@@H]3CCN(C)C3)CCN(c3ccc(C(F)(F)F)cc3C#N)CC2)cn1 [Compound 1-86, 1-[2-cyano-4-(trifluoromethyl)phenyl]-4-{5′-fluoro-2′-methoxy-[2,3′-bipyridin]-5-yl}-N-[(3R)-1-methylpyrrolidin-3-yl]piperidine-4-carboxamide] | < 0.01 µM
23 | CN1C[C@@H](O)[C@H](NC(=O)C2(c3ccc(-c4cccn4C)nc3)CCN(c3ccc(C(F)(F)F)cc3C#N)CC2)C1 [Compound 1-269, 1-[2-cyano-4-(trifluoromethyl)phenyl]-N-[(3R,4R)-4-hydroxy-1-methylpyrrolidin-3-yl]-4-[6-(1-methyl-1H-pyrrol-2-yl)pyridin-3-yl]piperidine-4-carboxamide] | < 0.01 µM
24 | COc1cccnc1-c1ccc(C2(C(=O)N[C@H]3CCN(C)C3)CCN(c3ccc(C(F)(F)F)cc3C#N)CC2)cn1 [Compound 1-178, 1-[2-cyano-4-(trifluoromethyl)phenyl]-4-{3′-methoxy-[2,2′-bipyridin]-5-yl}-N-[(3S)-1-methylpyrrolidin-3-yl]piperidine-4-carboxamide] | 0.01 to 0.1 µM
